Results on two molecules are retold here after US20030171340A1 (priority 2002, published 2003).

Test [1] deals with New Ps isolate from sediment. The test is described as follows: Growth of new Ps isolate from sediment in the presence of tetracycline or tetracycline-Fe2+ complex. The settings on record: experiment C. The test is classed as cell-based, Pseudomonas. As for the experimental part:
(§1) Individual components were tested for inhibition or enhancement of Pseudomonas isolated from the site.

The subject of test [2] is Pseudomonas isolate (Ps isolate, Susquehanna flats). The test is described as follows: Growth of Pseudomonas isolate in TSB in the presence of tetracycline, metal cations or tetracycline metal complexes. The test is classed as cell-based. Particulars: for Ps isolate growth (S/I/+4): experiment D. The method, then:
as §1

As for `CN(C)[C@@H]1C(O)=C(C(N)=O)C(=O)[C@@]2(O)C(O)=C3C(=O)c4c(O)cccc4[C@@](C)(O)[C@H]3C[C@@H]12` [tetracycline], the “Ps isolate growth (R/I/S)” value in test [1] (8 μg/mL), in test [1] (40 μg/mL) and in test [1] (100 μg/mL) was “R” throughout.

Regarding copper acetate [Cu^2+], in test [2] (experiment A, metal cation alone, 1 mL TSB + 4 μl (4 μg/mL)), the Ps isolate growth entry is listed as “Growth”. In addition, the “Ps isolate growth (S/I/+4)” value in test [2] (1 μg/mL) was “+4”; in test [2] (4 μg/mL), “I”; in test [2] (8 μg/mL), “S (no growth)”; in test [2] (metal cation alone, concentration not given), “+4”.
